How the values were obtained:
Assay type in all cases: cell-based, rabbit
[1] = molecular target: T1, α1B channel (voltage-dependent calcium channel α1B with α2δ1 and β1b) (Oryctolagus cuniculus, UniProt Q05152); assay: two electrode voltage-clamp, Ba2+ current in Xenopus oocytes expressing α1B channel
T1 construct: expressed in transfected cells; host or cells: Xenopus laevis oocytes injected with mRNAs
Protocol: (§1) Ovary was removed from the abdominal cavity of Xenopus laevis and treated with collagenase to remove follicle covering the oocyte (Kinoshita et al., J. Biol. Chem. 276, 28731-28738 (2001)). A combination of three kinds of mRNAs (16.7 ng each) of voltage-dependent calcium channel subunits α1A, α1B or α1E of rabbit and human α2δ1 and β1b (prepared according to the method described in Kinoshita et al., supra or a similar method) was mixed and injected into the oocyte and this was incubated in modified Birth's saline (88 mM NaCl, 1 mM KCl, 0.41 mM CaCl2, 0.33 mM Ca(NO3)2, 0.82 mM MgSO4, 2.4 mM NaHCO3, 7.5 mM Tris-HCl, 10 U/ml penicillin, 10 μg/ml streptomycin, pH 7.6) at 22° C. for 2 to 4 days.
(§2) The oocyte prepared in the above was placed in a chamber filled with a Ba^2+-containing recording liquid (10 mM Ba(OH)2, 90 mM NaOH, 2 mM KOH, 5 mM Hepes, 0.3 mM niflumic acid, methanesulfonic acid, pH 7.4) and fixed at −80 mV using two glass electrodes. A test pulse (200 ms width) toward 0 mV was applied at 30 second intervals and the whole-cell membrane current was measured. A +100 mV depolarization prepulse (100 ms width) that ends before 40 ms was applied every other pulse to eliminate the effect of G protein βγ subunit that binds with Ca^2+ channel to suppress opening (Kinoshita et al., supra). Based on the Ba^2+ current (IBa) as a Ca^2+ channel current, the leak current was corrected by P/4 protocol. N-(4-Acetyl-1-piperazinyl)-p-fluorobenzamide monohydrate (hereinafter to be also referred to as a test compound) was dissolved in the recording liquid containing Ba^2+ and applied.

[2] = molecular target: T2, α1A channel (voltage-dependent calcium channel α1A with α2δ1 and β1b) (Oryctolagus cuniculus, UniProt P27884); assay: two electrode voltage-clamp, Ba2+ current in Xenopus oocytes expressing α1A channel; details: 100 nM test compound; 0 mV, 200 ms test pulse; Xenopus oocyte
T2 construct: expressed in transfected cells; host or cells: Xenopus laevis oocytes injected with mRNAs
Protocol: as §1
as §2, with “Based on the Ba^2+ current (IBa) as a Ca^2+ channel current, the leak current was corrected by P/4 protocol. N-(4-Acetyl-1-piperazinyl)-p-fluorobenzamide monohydrate (hereinafter to be also referred to as a test compound) was dissolved in the recording liquid containing Ba^2+ and applied.” left out

[3] = molecular target: T3, α1E channel (voltage-dependent calcium channel α1E with α2δ1 and β1b) (Oryctolagus cuniculus, UniProt Q02343); assay: two electrode voltage-clamp, Ba2+ current in Xenopus oocytes expressing α1E channel; details: 100 nM test compound; 0 mV, 200 ms test pulse; Xenopus oocyte
T3 construct: expressed in transfected cells; host or cells: Xenopus laevis oocytes injected with mRNAs
Protocol: as §1
as §2, with “Based on the Ba^2+ current (IBa) as a Ca^2+ channel current, the leak current was corrected by P/4 protocol. N-(4-Acetyl-1-piperazinyl)-p-fluorobenzamide monohydrate (hereinafter to be also referred to as a test compound) was dissolved in the recording liquid containing Ba^2+ and applied.” left out

T1 sequence (Q05152 whole entry): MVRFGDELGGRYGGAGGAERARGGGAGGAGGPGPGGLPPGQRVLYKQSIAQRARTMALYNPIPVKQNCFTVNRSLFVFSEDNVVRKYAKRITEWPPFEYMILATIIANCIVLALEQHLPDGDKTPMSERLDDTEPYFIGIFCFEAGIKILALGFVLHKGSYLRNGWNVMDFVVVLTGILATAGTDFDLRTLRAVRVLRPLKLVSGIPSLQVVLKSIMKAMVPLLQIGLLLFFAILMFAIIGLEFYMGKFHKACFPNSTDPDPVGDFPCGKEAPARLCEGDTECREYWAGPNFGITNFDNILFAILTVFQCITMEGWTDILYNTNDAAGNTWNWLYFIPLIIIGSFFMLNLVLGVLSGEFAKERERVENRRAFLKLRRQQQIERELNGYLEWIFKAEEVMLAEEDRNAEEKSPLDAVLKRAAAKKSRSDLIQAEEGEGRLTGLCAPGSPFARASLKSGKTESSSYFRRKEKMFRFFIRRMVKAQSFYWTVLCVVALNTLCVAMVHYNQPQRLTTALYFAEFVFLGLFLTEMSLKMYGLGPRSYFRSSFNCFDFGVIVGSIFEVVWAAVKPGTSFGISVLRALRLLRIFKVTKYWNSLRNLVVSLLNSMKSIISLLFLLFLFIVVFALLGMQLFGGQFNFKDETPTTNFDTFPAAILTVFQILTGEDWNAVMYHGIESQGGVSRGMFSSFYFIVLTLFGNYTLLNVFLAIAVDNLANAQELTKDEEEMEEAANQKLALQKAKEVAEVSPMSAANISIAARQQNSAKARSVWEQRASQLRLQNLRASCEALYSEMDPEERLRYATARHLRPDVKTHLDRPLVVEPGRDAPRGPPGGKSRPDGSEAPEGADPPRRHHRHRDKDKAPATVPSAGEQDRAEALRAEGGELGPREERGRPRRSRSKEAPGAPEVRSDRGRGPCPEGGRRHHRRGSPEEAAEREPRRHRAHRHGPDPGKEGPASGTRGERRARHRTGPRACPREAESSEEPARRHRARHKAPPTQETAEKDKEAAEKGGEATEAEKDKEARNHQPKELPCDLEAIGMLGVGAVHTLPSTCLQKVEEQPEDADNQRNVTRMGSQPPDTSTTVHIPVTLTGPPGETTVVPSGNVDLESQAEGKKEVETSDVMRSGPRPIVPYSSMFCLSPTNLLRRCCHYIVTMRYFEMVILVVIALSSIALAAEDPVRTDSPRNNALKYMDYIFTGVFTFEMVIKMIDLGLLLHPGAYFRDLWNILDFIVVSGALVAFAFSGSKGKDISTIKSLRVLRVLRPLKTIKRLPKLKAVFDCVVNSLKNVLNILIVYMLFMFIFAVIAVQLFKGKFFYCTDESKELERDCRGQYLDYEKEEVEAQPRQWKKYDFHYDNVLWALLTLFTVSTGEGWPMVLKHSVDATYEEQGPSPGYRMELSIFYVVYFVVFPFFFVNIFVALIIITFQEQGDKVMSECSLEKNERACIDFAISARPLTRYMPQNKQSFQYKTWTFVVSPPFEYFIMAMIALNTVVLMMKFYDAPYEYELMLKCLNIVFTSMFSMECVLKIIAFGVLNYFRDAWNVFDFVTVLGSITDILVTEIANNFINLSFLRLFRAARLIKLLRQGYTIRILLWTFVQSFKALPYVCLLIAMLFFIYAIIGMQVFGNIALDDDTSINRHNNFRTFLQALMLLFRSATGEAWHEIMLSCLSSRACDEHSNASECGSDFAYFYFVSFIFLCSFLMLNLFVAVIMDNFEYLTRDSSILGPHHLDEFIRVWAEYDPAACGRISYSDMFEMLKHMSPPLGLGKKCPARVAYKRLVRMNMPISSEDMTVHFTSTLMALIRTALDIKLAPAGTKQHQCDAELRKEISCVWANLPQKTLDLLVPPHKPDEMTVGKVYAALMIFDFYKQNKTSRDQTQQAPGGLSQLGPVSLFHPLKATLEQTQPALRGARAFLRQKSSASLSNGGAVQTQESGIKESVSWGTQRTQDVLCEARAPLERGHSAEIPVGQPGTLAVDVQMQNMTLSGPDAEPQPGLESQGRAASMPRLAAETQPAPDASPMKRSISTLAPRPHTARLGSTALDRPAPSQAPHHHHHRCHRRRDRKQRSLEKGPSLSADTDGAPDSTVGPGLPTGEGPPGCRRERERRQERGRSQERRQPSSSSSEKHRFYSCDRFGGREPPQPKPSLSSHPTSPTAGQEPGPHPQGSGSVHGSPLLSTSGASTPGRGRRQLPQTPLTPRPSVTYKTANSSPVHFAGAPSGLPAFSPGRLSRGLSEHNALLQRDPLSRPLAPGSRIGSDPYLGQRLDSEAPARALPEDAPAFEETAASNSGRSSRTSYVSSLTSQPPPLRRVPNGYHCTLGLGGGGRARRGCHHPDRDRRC
T1 sequence (P54289 25-956 partner): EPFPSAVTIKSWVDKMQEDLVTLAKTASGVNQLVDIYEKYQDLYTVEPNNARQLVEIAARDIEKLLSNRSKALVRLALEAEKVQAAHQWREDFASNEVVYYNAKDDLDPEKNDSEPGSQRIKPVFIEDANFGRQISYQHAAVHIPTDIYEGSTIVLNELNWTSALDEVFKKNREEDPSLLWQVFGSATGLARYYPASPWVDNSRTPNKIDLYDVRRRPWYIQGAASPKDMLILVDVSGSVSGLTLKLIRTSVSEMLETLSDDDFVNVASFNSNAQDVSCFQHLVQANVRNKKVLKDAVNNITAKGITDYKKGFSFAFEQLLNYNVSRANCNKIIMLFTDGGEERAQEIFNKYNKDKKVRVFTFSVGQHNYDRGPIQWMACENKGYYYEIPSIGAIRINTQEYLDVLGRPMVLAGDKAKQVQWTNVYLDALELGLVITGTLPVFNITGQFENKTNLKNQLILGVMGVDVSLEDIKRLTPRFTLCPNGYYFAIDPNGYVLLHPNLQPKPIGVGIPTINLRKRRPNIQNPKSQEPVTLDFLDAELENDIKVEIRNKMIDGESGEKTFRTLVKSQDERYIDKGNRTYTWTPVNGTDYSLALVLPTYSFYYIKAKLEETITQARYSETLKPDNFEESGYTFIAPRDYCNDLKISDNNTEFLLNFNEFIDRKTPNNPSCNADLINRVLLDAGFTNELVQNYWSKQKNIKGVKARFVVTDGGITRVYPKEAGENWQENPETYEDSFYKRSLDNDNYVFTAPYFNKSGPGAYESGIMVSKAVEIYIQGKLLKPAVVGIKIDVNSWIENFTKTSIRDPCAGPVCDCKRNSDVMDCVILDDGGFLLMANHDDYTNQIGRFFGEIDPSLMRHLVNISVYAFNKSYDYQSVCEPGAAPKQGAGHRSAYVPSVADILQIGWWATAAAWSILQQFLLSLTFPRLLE
T1 sequence (P54289 957-1103 partner): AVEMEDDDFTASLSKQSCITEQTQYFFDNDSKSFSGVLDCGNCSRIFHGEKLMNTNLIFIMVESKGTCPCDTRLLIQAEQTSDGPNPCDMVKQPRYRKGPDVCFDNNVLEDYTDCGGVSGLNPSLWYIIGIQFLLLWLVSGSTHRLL
T1 sequence (Q02641 whole entry partner): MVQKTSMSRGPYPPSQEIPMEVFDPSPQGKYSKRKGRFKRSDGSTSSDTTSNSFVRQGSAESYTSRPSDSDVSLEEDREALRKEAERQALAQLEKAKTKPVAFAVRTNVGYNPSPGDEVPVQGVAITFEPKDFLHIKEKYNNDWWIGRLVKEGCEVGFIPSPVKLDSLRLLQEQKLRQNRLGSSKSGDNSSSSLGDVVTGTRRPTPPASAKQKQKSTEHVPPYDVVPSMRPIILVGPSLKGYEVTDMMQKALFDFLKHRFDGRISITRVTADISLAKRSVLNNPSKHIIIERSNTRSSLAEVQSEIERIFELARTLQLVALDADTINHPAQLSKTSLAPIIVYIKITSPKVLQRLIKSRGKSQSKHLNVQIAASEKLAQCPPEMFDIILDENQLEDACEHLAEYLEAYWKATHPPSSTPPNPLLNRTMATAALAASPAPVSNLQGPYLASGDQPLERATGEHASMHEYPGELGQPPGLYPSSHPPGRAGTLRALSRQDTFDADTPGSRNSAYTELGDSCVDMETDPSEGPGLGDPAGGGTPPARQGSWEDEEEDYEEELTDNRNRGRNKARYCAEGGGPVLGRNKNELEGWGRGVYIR

CC(=O)N1CCN(NC(=O)c2ccc(F)cc2)CC1.O [test compound, N-(4-Acetyl-1-piperazinyl)-p-fluorobenzamide monohydrate]
effect on α1B channel current ([1]; 100 nM test compound, 0 mV, 200 ms test pulse, Xenopus oocyte): increase in the current
influence on the voltage-dependency of α1B channel activation/inactivation ([1]; 100 nM test compound, varied depolarization stimulating potential and steady inactive state): almost no influence
α1B channel current after return into basal solution and washing ([1]; after 100 nM test compound, washed): fell to the same level as that before the treatment
potentiation of the current amplitude, channel specificity and concentration range ([1]; various concentrations, compared with α1A and α1E channels): α1B channel-specific potentiation of the current amplitude in a relatively narrow concentration range
effect on α1A channel current [2]: almost no effect
effect on α1E channel current [3]: almost no effect
